In patent US9650348B2, “Triazines with suitable spacers for treatment and/or prevention of HIV infections” (Universiteit Antwerpen, priority 2012, dated 2017):

Tests used:
[1] = tested on: HIV-1 BaL; experiment: TZM-bl antiviral assay, wild type HIV-1 Ba-L; assay type: cell-based; details: Human immunodeficiency virus 1, BAL; TZM-bl cells, Ba-L wild type; read-out: Antiviral activity-wild type viruses EC50 TZM-bI Ba-L
Method: (§1) The JC53-BL cell line, also known as the TZM-bl cell line (NIH AIDS Research and Reference Reagent Program, Germantown, USA), was used for the evaluation of anti-HIV activity. TZM-bl cells were cultured in Dulbecco's […] (DMEM) (Lonza) containing 10% heat-inactivated FBS and 50 μg gentamycin/mL at 37° C. in a humidified 5% CO2, 95% air environment. Twice a week the cells were treated with 0.25% trypsin-1 mM EDTA (Lonza) for 10 minutes. The resulting cell suspension was washed with an equivalent amount of TZM-bl medium and subsequently seeded in a T75 culture flask (Greiner Bio-One, Germany) at 10^6 cells in 20 mL medium.
(§2) The antiviral activity of the newly designed compounds was measured by pre-incubating ten thousand TZM-bl cells (at 10^5 cells/mL in culture medium supplemented with 30 μg/mL DEAE dextran) in a 96-well plate for 30 minutes at 37° C., 5% CO2 in the presence or absence of serial dilutions of the respective compound. Subsequently, 200 TCID50 of HIV-1 BaL was added to each well and cultures were incubated for 48 hours before quantifying luciferase activity, using a TriStar LB941 luminometer (Berthold Technologies GmbH & Co. KG, Bad Wildbad, Germany). Each condition was evaluated in triplicate wells and in at least two independent experiments. The antiviral activity of the compound was expressed as the percentage of viral inhibition compared to the untreated controls and subsequently plotted against the compound concentration.
(§3) The target compounds are evaluated for their anti-HIV-1 activity and cytotoxicity. In a primary screen, the anti-HIV activity against the laboratory strain Ba-L and against a primary subtype C isolate was determined in the TZM-bl cell line. Cellular toxicity on TZM-bl cells was evaluated using WST-1. […] In addition, the activity against NNRTI-resistant viruses (V106A, Y181C, L100I+K103N, L100I+E138K+T369I and K101E+K103N+V108VI+V179M+Y181C+E138Q) was tested. Diarylpyrimidines (DAPY) TMC120, TMC125 and TMC278 were used as reference compounds.

[2] = tested on: VI829; experiment: TZM-bl antiviral assay, wild type VI829 (primary subtype C isolate); assay type: cell-based, HIV-1; details: Human immunodeficiency virus 1; TZM-bl cells, VI829 wild type; read-out: Antiviral activity-wild type viruses EC50 TZM-bI VI829
Method: as §1, §2, §3

[3] = tested on: HIV-1 Ba-L; experiment: Antiviral activity in peripheral blood mononuclear cells (PBMC), Ba-L; assay type: cell-based; details: Human immunodeficiency virus 1, BAL, Ba-L wild type, read-out: Antiviral activity-wild type viruses EC50 PBMC Ba-L
[4] = tested on: HIV-1 Ba-L; experiment: Antiviral activity in dendritic cells / CD4+ T lymphocytes (DC/T4), Ba-L; assay type: cell-based; details: Human immunodeficiency virus 1, BAL; DC/T4, Ba-L wild type; read-out: Antiviral activity-wild type viruses EC50 DC/T4 Ba-L
[5] = tested on: Ba-L V106A; experiment: Antiviral activity, NNRTI-resistant virus V106A; assay type: cell-based, HIV-1; details: for FC (V106A): Ba-L V106A; for EC50: Human immunodeficiency virus 1, BAL, read-out: Antiviral activity-NNRTI-resistant viruses EC50 Ba-L V106A
Method: as §3

[6] = tested on: VI829 Y181C; experiment: Antiviral activity, NNRTI-resistant virus Y181C; assay type: cell-based, HIV-1; details: for EC50: Human immunodeficiency virus 1, read-out: Antiviral activity-NNRTI-resistant viruses EC50 VI829 Y181C; for FC (Y181C): VI829 Y181C
Method: as §3

[7] = tested on: VI829 L100I+K103N; experiment: Antiviral activity, NNRTI-resistant virus L100I+K103N; assay type: cell-based, HIV-1; details: for EC50: Human immunodeficiency virus 1, read-out: Antiviral activity-NNRTI-resistant viruses EC50 VI829 L100I+K103N; for FC (L100I+K103N): VI829 L100I+K103N
Method: as §3

[8] = tested on: Ba-L K101E + K103N + V108VI + V179M + Y181C + E138Q; experiment: Antiviral activity, NNRTI-resistant virus K101E+K103N+V108VI+V179M+Y181C+E138Q; assay type: cell-based, HIV-1; details: for FC (*): Ba-L, * = K101E + K103N + V108VI + V179M + Y181C + E138Q; for EC50: Human immunodeficiency virus 1, BAL, read-out: Antiviral activity-NNRTI-resistant viruses EC50 Ba-L *
Method: (§4) The target compounds are evaluated for their anti-HIV-1 activity and cytotoxicity. In a primary screen, the anti-HIV activity against the laboratory strain Ba-L and against a primary subtype C isolate was determined in the TZM-bl cell line. Cellular toxicity on TZM-bl cells was evaluated using WST-1. Based on the primary screening results, the target compound was further evaluated for anti-HIV activity in different primary cells, including peripheral blood mononuclear cells, dendritic cells and CD4+ T lymphocytes. In addition, the activity against NNRTI-resistant viruses (V106A, Y181C, L100I+K103N, L100I+E138K+T369I and K101E+K103N+V108VI+V179M+Y181C+E138Q) was tested. Diarylpyrimidines (DAPY) TMC120, TMC125 and TMC278 were used as reference compounds.

[9] = tested on: VI829 L100I+E138K+T369I; experiment: Antiviral activity, NNRTI-resistant virus L100I+E138K+T369I; assay type: cell-based, HIV-1; details: for FC (**): VI829, ** = L1001 + E138K + T3691
Method: as §4

[10] = in vitro; assay type: cell-based; details: human, Cytotoxicity CC50 TZM-bI
Excerpt: (§5) The Water Soluble Tetrazolium-1 (WST-1) Cell Proliferation Assay is a colorimetric assay for the measurement of cell proliferation and viability. The assay is based on the cleavage of the tetrazolium salt WST-1 (4-[3-(4-iodophenyl)-2-(4-nitrophenyl)-2H-5-tetrazolio]-1,3-benzene disulfonate) to a formazan dye by a complex cellular mechanism. This bioreduction is largely dependent on the glycolytic production of NAD(P)H in viable cells. Therefore, the amount of formazan dye formed correlates directly to the number of viable cells in the culture, and can be quantified by measuring the absorbance at 450 nm in a multiwell plate reader. The greater the number of viable cells, the greater the amount of formazan dye produced following the addition of WST-1. Cytotoxicity of each compound was evaluated using this WST-1 viability assay, according to the manufacturer's instructions (Roche, Vilvoorde, Belgium).
(§6) Briefly, ten thousand TZM-bl cells were seeded in a 96-well plate and cultured for 2 days in the presence of a serial dilution of compound. After this 48 h exposure, Cell Proliferation Reagent, WST-1, was added and absorbance at 450 nm was quantified after 90 min using a microplate reader (BioRad, Tokio, Japan). Each compound was tested in three replicate wells and in at least two independent experiments.
as §3

[11] = Partition coefficient (Log D), octanol/PBS; assay type: physicochemical; details: octanol/PBS pH 7.4
Method: 10 mM stock solution (in DMSO) was prepared.
200 μM solution (in DMSO) was prepared from 10 mM stock solution.
A set of 5-10 dilutions (in MeOH) of each compound were prepared from 200 μM solution to give final test concentrations between 1 nm and 2 μM.
MS tuning was done for each compound to find the daughter peaks using 500 nm solution.
Calibration curve was made for each compound to evaluate the linearity of our method.
Octanol was first saturated with PBS and PBS was first saturated with octanol
20 μl of a 10 mM DMSO stock solution was added to 990 μl of PBS (pH 7.4) and then 990 μl of octanol was added. The experiment was done in duplicate. After two hours of shaking at 37° C. and keeping at room temperature for 30 minutes the two layers were separated. After separation, octanol layer was diluted further with MeOH and compound was quantified in both layers by UPLC (waters). The samples were analysed in triplicate.
Where: • ConcINITIAL=Concentration of compound in the initial aqueous solution (PBS) • ConcFINAL=Concentration of compound in final aqueous phase (PBS) • Vaq=Volume of aqueous (PBS) • Voct=Volume of octanol

[12] = tested on: TZM-bl cells; experiment: in vitro; assay type: cell-based; details: human, 48 h
Excerpt: as §5, §6, §3

SMILES | EC50 [1] [nM] | EC50 [2] [nM] | EC50 [3] [nM] | EC50 [4] [nM] | FC (V106A) [5] | EC50 [5] [nM] | EC50 [6] [nM] | FC (Y181C) [6] | EC50 [7] [nM] | FC (L100I+K103N) [7] | FC (*) [8] | EC50 [8] [nM] | FC (**) [9] | CC50 at 48 h [10] [nM] | logD at 2 h [11] | activity against Efavirenz resistant viruses (L100I+K103N), in words ([7]; L100I+K103N) | activity against NNRTI-resistant virus K101E+K103N+V108VI+V179M+Y181C+E138Q, in words ([8]; K101E+K103N+V108VI+V179M+Y181C+E138Q) | activity against NNRTI-resistant virus L100I+E138K+T369I, in words ([9]; L100I+E138K+T369I) | CC50 [12] [nM]
Cc1cc(C=CC#N)cc(C)c1Nc1nc(N)nc(Nc2ccc(C#N)cc2)n1 [T1, 4-(4-amino-6-(4-(2-cyanovinyl)-2,6-dimethylphenylamino)-1,3,5-triazin-2-ylamino)benzonitrile] | 1.3 | 1.1 | 1.8 | 0.7 | 1 | 1.7 | 4 | 3 | 15 | 10 | 18 | 22.8 | 210 | 34600 | – | – | – | – | –
Cc1cc(/C=C/C#N)cc(C)c1Nc1nc(N)nc(Nc2ccc(C#N)cc2)n1 [T2, (E)-4-(4-amino-6-(4-(2-cyanovinyl)-2,6-dimethylphenylamino)-1,3,5-triazin-2-ylamino)benzonitrile] | 1.3 | 1.3 | 5.3 | 0.51 | 1 | 1.9 | 2.6 | 2 | 6.8 | 5.2 | 18 | 23 | 68 | 24500 | 3.8 | – | – | – | –
Cc1cc(C)c(Nc2ccnc(Nc3ccc(C#N)cc3)n2)c(C)c1 [TMC120, reference compound] | 2 | 2 | 5.1 | 1.6 | 1 | 2.5 | 10.8 | 5 | 674 | 337 | >500 | > 1000 | >500 | 2880 | > 5 | high nanomolar activity | no activity | no activity | < 5000
Cc1cc(/C=C\C#N)cc(C)c1Nc1nc(N)nc(Nc2ccc(C#N)cc2)n1 [T3, (Z)-4-(4-amino-6-(4-(2-cyanovinyl)-2,6-dimethylphenylamino)-1,3,5-triazin-2-ylamino)benzonitrile] | 1.1 | 1.1 | 6.1 | 0.31 | 5 | 5.2 | 12 | 11 | 123 | 112 | 214 | 236 | 1266 | 30800 | – | – | – | – | –
Cc1cc(/C=C/C#N)cc(C)c1Nc1ccnc(Nc2ccc(C#N)cc2)n1 [TMC278, Rilpivirine, reference compound] | 0.72 | 1 | 5.2 | 1.6 | 1 | 0.93 | 2.5 | 3 | 3.6 | 4 | 38 | 27 | 130 | < 10000 | 4 | – | – | – | 7740
